Measurements: patent publication US11390582B2, “Polymorphs of 1-(4-benzyloxy-benzyl)-3-methyl-thiourea” (Seoul National University R&DB Foundation, priority 2019, dated 2022)

Experiments:
Type in all cases: physicochemical
[1] = Hygroscopicity test through dynamic vapor sorption (DVS); details: for Hygroscopicity (25° C./80% RH): DVS; for Morphology Change: after DVS hygroscopicity test
Excerpt: Experimental Example 3. Hygroscopicity Test Through Dynamic Vapor Sorption (DVS)
From a pharmaceutical point of view, it is desired to maintain the initial moisture and morphology without absorbing moisture even in a moisture environment.

[2] = Stability test of crystalline forms A and B (25° C./60% RH and 40° C./75% RH, 1 week); details: for Increase of impurities under given conditions: 25° C./60% RH and 40° C./75% RH; for Increase of impurities under given conditions / Change of crystalline form: in words
Excerpt: Experimental Example 4. Stability Test
(§1) From a pharmaceutical point of view, the stability of an active ingredient is very important. It is not preferable pharmaceutically that impurities are excessively produced or the crystalline form is changed under a storage condition.

[3] = Stability test under storage condition at room temperature (crystalline form A, up to 6 months); details: for Crystalline form / Purity (%): room temperature storage
Excerpt: Experimental Example 5. Stability Test Under Storage Condition
as §1

[4] = storage conditions at room temperature, in words

| Structure (SMILES) | Hygroscopicity (25° C./80% RH) [1] [%] | Morphology Change [1] | Increase of impurities under given conditions [2] | Final crystalline form ([2]; 25° C./60% RH, 1 week) | HPLC Purity (area %) ([2]; 25° C./60% RH, 1 week) | Final crystalline form ([2]; 40° C./75% RH, 1 week) | HPLC Purity (area %) ([2]; 40° C./75% RH, 1 week) | HPLC Purity (area %) ([2]; Initial) | also measured |
| --- | --- | --- | --- | --- | --- | --- | --- | --- | --- |
| CNC(=S)NCc1ccc(OCc2ccccc2)cc1 [Crystalline form A, 1-(4-benzyloxy-benzyl)-3-methyl-thiourea] | 0.07 | No | impurities were not increased | form A | 99.71 | form A | 99.66 | 99.55 | Moisture content compared between forms ([1]; 80% moisture condition, in words): contains less moisture under 80% moisture condition than crystalline form B; Crystalline form ([3]; 1 month): form A; Purity (%) ([3]; 1 month): 100.0%; Crystalline form ([3]; 3 months): form A; Purity (%) ([3]; 3 months): 100.0%; Crystalline form ([3]; 6 months): form A; Purity (%) ([3]; 6 months): 100.0%; Crystalline form ([3]; Initial): form A; Purity (%) ([3]; Initial): 100.0%; Change of crystalline form [3, 4]: the crystalline form was not changed; Increase of impurities [3, 4]: impurities were not increased |
| CNC(=S)NCc1ccc(OCc2ccccc2)cc1 [Crystalline form B, 1-(4-benzyloxy-benzyl)-3-methyl-thiourea] | 0.20 | No | impurities were not increased | forms A + B | 99.70 | form A | 99.72 | 99.49 | Change of crystalline form ([2]; acceleration condition): all changed into crystalline form A; Change of crystalline form ([2]; storage condition at room temperature): being changed into crystalline form A |
